The results in this text go back to a melting point compilation (Tetko et al.; mined from patent text by program, amines drawn as free bases though some values may be those of a salt).

On to `N#CNc1ccccc1-c1ccc(F)cc1`, for which the melting point (commonly the temperature, or range, at which the solid turns liquid) is 95 to 96 °C.
In the case of `CC(Oc1ncn(-c2cccc(Br)c2)n1)C(N)=O` (stereo not given) it was 141 to 144 °C.
In the case of `COc1ccc2[nH]c(=O)[nH]c(=O)c2c1OC` it was 266 to 268 °C.
Compound `O=C(O)c1c(Cl)c([N+](=O)[O-])cc([N+](=O)[O-])c1Nc1ccc(OCc2ccccc2)cc1` showed a melting point of 208 to 211 °C.
Take `CN(C)c1ccc2nc(-c3ccccc3)oc2n1`: the melting point lay within 127 to 129 °C.
The compound `O=C(O)c1cn(Cc2nccs2)c2cc(N3CCN(c4ccncc4)CC3)ccc2c1=O` came in with a melting point of 273 to 276 °C.
Consider `COc1ccc(CN(C)CCc2ccc(NC(=O)c3cccc4c(=O)c5cccc(C)c5[nH]c34)c(C)c2)cc1OC`, for which the melting point was in the range of 160 to 161 °C.
In the case of `CC1=Cc2cc(C(=O)O)ccc2OC1(C)C` it was 169 to 171 °C.
Under `COc1ccc(COc2cc(Sc3c(Cl)cc(C=O)cc3Cl)ccc2OC)cn1` stands 102 to 104 °C; under `O=C1CCC(N2Cc3c(OCc4nc(CN5CCOCC5)no4)cccc3C2=O)C(=O)N1` (stereo not given), 150 to 152 °C; under `Nc1nc2ccccc2c2c1ncn2Cc1ccncc1`, above 300 °C.
Under `CCOC(=O)c1cn(Cc2ccc(OCc3nc(-c4ccccc4)oc3C)cc2)nc1-c1cccs1` stands 113 to 114 °C.
For the compound `CCCCNC(=O)NCCCCCCCCCCCCN`, the melting point came to 97 °C.
In the case of `CCOC(=O)C(NC(C)=O)C(=O)c1ccccc1` (stereo not given) it was 63 to 64 °C; in that of `COc1cc2c(cc1OC)CN(CCN(C)Cc1ccc(NC(=O)c3cccc4c(=O)c5cccc(OC)c5[nH]c34)cc1)CC2`, 202 °C.
In the case of `COc1cccc(Nc2ccnc(Nc3cc(NC(C)=O)c(OC)c(OC)c3)n2)c1` it was 158 to 160 °C.
In the case of `CN1C(=O)N(CC(CS(=O)(=O)c2ccc(Oc3ccc(C(F)(F)F)cc3)cc2)N(O)C=O)C(=O)C1(C)C` (stereo not given) it was 141 to 143 °C.
The compound `CCOC(=O)c1[nH]cnc1Cc1ccccc1` registered a melting point of 149 °C.
In the case of `O=C(Cn1c2c(c(=O)n3nc(-c4ccc(Cl)cc4)cc13)CN(C1CCCCC1)C2=O)c1ccccc1` it was 237 to 239 °C.
Take `Cc1nc(CCOc2ccc(N)cc2)oc1-c1ccccc1`: the melting point lay in the range of 106 to 107 °C.
`CNC(=O)c1ccccc1Sc1ccc(C)cc1[N+](=O)[O-]`: the melting point fell in the range of 122 to 123 °C.
In the case of `CC(Oc1ccc(N(C)c2nnc3cc(Cl)ccc3n2)cc1)C(=O)O` (stereo not given) it was 125 °C; in that of `CC(C)OC(=O)N1CCC(NC(=O)N2CCn3c(c(C(N)=O)c(C#N)c3C3CC3)C2)CC1`, 181 to 182 °C; in that of `O=C(NCCc1ccccc1)c1ccc(Cl)nc1`, 95 to 96 °C.
For `CCCCNC(=O)n1c(=S)[nH]c2ccccc21`, the melting point is 179 to 180 °C.
Regarding `Cc1noc(=O)c2ccc(NC(=O)C(C)(O)CC(C)(C)c3ccccc3)cc12` (stereo not given), the melting point lay within 173 to 175 °C.
Compound `CCOC(=O)C1=C(C)NC(COC(C)=O)=C(C(=O)OCC)C1c1ccccc1[N+](=O)[O-]` (stereo not given) showed a melting point of 89 to 90 °C.
On to `CCOc1cc(CCl)nc(OCC)n1`, for which the melting point lay in the range of 38 to 39 °C.
`CC(C)CC(C(N)=O)N1C(=O)c2ccccc2C1=O` (stereo not given) gave a melting point of 173 to 176 °C.
`COc1ccc(C2(C#Cc3cc(C(=O)O)cs3)CCC(=O)CC2)cc1OC1CCCC1` displayed a melting point of 75 to 76 °C.
Under `CCn1cc(C(=O)O)c(=O)cc1-c1ccc(OC)cc1` stands 215 to 217 °C.
In turn, `COC(=O)CC(=O)c1cc(CN2CCOCC2)sc1Cl` gave a melting point of 67 to 68 °C.
In the case of `CCOC(=O)CC(=O)N(C)c1ccc(Cl)cc1N` it was 112 to 114 °C; in that of `Cc1cc(=O)oc2nn(C(C)C)c(C)c12`, 164 to 166 °C; in that of `Cc1c(C)c(C(=O)CCl)c(C)c(C)c1Cl`, 94 to 96 °C.
